According to doi:10.1101/2025.05.22.655619v4 (bioRxiv, 2025):
Residues, ends and D or L forms follow the SMILES beside them.

How the values were obtained:
defibrinated sheep blood = assay: Hemolysis assay; type: cell-based; settings: for Hemo/MIC = (< 20% Hemo) / MIC Ec: MICs >50 µM treated as 100 µM, >200 µM treated as 200 µM
E. coli (ATCC 25922) = assay: Antimicrobial susceptibility testing; type: cell-based, Escherichia coli; settings: summary values

Molecule	Fold Δ = (Hemo/MIC of compound) / (Hemo/MIC of LL-37) (defibrinated sheep blood; Figure 1B)	Fold Δ = (Hemo/MIC of compound) / (Hemo/MIC of LL-37) (defibrinated sheep blood; Figure 6C)	Hemo/MIC = (< 20% Hemo) / MIC Ec (defibrinated sheep blood; Figure 6C)	MIC against E. coli as stated in the text and in the table of contents graphic (E. coli (ATCC 25922)) [µM]	further results
CC[C@H](C)[C@H](NC(=O)[C@H](CCCCN)NC(=O)[C@H](CCC(=O)O)NC(=O)[C@H](CCCCN)NC(=O)[C@H](CO)NC(=O)[C@H](CCCCN)NC(=O)[C@H](CCCNC(=N)N)NC(=O)[C@H](Cc1ccccc1)NC(=O)[C@H](Cc1ccccc1)NC(=O)[C@H](CC(=O)O)NC(=O)CN)C(=O)NCC(=O)N[C@@H](CCCCN)C(=O)N[C@@H](CCC(=O)O)C(=O)N[C@@H](Cc1ccccc1)C(=O)N[C@@H](CCCCN)C(=O)N[C@@H](CCCNC(=N)N)C(=O)N[C@H](C(=O)N[C@H](C(=O)N[C@@H](CCC(N)=O)C(=O)N[C@@H](CCCNC(=N)N)C(=O)N[C@H](C(=O)N[C@@H](CCCCN)C(=O)O)[C@@H](C)CC)C(C)C)[C@@H](C)CC [(#4) GD-23] (H-GDFFRKSKEKIGKEFKRIVQRIK-OH; N-terminus and C-terminus assumed)	64	32	32	–	–
CC[C@H](C)[C@H](NC(=O)[C@H](CCCNC(=N)N)NC(=O)[C@H](CCC(N)=O)NC(=O)[C@@H](NC(=O)[C@@H](NC(=O)[C@H](CCCNC(=N)N)NC(=O)[C@H](CCCCN)NC(=O)[C@H](Cc1ccccc1)NC(=O)[C@@H](N)Cc1ccccc1)[C@@H](C)CC)C(C)C)C(=O)N[C@@H](CCCCN)C(=O)N[C@@H](CC(=O)O)C(=O)N[C@@H](Cc1ccccc1)C(=O)N[C@@H](CC(C)C)C(=O)N[C@@H](CCCNC(=N)N)C(=O)O [(#18) FF-14] (H-FFKRIVQRIKDFLR-OH)	–	–	–	3.1	–
CC[C@H](C)[C@H](NC(=O)[C@H](CCCCN)NC(=O)[C@H](CCC(=O)O)NC(=O)[C@H](CCCCN)NC(=O)[C@H](CO)NC(=O)[C@H](CCCCN)NC(=O)[C@H](CCCNC(=N)N)NC(=O)[C@H](Cc1ccccc1)NC(=O)[C@H](Cc1ccccc1)NC(=O)[C@H](CC(=O)O)NC(=O)CN)C(=O)NCC(=O)N[C@@H](CCCCN)C(=O)N[C@@H](Cc1ccccc1)C(=O)N[C@@H](Cc1ccccc1)C(=O)N[C@@H](CCCCN)C(=O)N[C@@H](CCCNC(=N)N)C(=O)N[C@H](C(=O)N[C@H](C(=O)N[C@@H](CCC(N)=O)C(=O)N[C@@H](CCCNC(=N)N)C(=O)N[C@H](C(=O)N[C@@H](CCCCN)C(=O)O)[C@@H](C)CC)C(C)C)[C@@H](C)CC [(#53) GD-23 (FF)] (H-GDFFRKSKEKIGKFFKRIVQRIK-OH; N-terminus and C-terminus assumed)	–	16	16	–	–
CC[C@H](C)[C@H](NC(=O)[C@H](CCCCN)NC(=O)[C@H](CCC(=O)O)NC(=O)[C@H](CCCCN)NC(=O)[C@H](CO)NC(=O)[C@H](CCCCN)NC(=O)[C@H](CCCNC(=N)N)NC(=O)[C@H](Cc1ccccc1)NC(=O)[C@H](Cc1ccccc1)NC(=O)[C@H](CC(=O)O)NC(=O)CNC(=O)[C@H](CC(C)C)NC(=O)[C@@H](N)CC(C)C)C(=O)NCC(=O)N[C@@H](CCCCN)C(=O)N[C@@H](Cc1ccccc1)C(=O)N[C@@H](Cc1ccccc1)C(=O)N[C@@H](CCCCN)C(=O)N[C@@H](CCCNC(=N)N)C(=O)N[C@H](C(=O)N[C@H](C(=O)N[C@@H](CCC(N)=O)C(=O)N[C@@H](CCCNC(=N)N)C(=O)N[C@H](C(=O)N[C@@H](CCCCN)C(=O)O)[C@@H](C)CC)C(C)C)[C@@H](C)CC [(#49) LL-25 (FF)] (H-LLGDFFRKSKEKIGKFFKRIVQRIK-OH; N-terminus assumed)	–	4	4	–	–
CC[C@H](C)[C@H](NC(=O)[C@H](CCCNC(=N)N)NC(=O)[C@H](CCC(N)=O)NC(=O)[C@@H](NC(=O)[C@@H](NC(=O)[C@H](CCCNC(=N)N)NC(=O)[C@@H](N)CCCCN)[C@@H](C)CC)C(C)C)C(=O)N[C@@H](CCCCN)C(=O)N[C@@H](CC(=O)O)C(=O)N[C@@H](Cc1ccccc1)C(=O)N[C@@H](CC(C)C)C(=O)N[C@@H](CCCNC(=N)N)C(=O)O [(#10) KR-12] (H-KRIVQRIKDFLR-OH)	–	–	–	> 50	–
Colistin [reference compound]	512	–	–	–	Fold Δ = (Hemo/MIC of compound) / (Hemo/MIC of LL-37) (defibrinated sheep blood; Figure 2B): 256; Hemo/MIC = (< 20% Hemo) / MIC Ec (defibrinated sheep blood; Figure 2B): 64; Hemo/MIC = (< 20% Hemo) / MIC Ec (defibrinated sheep blood; Figure 4B): 128
